In patent US12258397B2 (Seattle Children's Hospital, priority 2014, dated 2025):
Several values for one entry are separate records, joined by “and”; a condition that tells them apart may be missing. Equal values may be shown once.

Columns and labels:
[1] = tested on: cells transfected with GFP:SB; assay: GFP expression in cells transfected with GFP:SB (SB100X DNA or RNA) under MTX; format: cell-based; conditions: cells transfected with 5 ug of GFP:SB; 50 uM and 100 uM MTX tested
Experimental: Cells were electroporated with SB100X (DNA or RNA) or transposons carrying genes for GFP, CARS, or GFP/mCherry/BFP. FIG. 20A relates to lymphocytes; FIG. 20B relates to single cells; FIG. 20C relates to live cells; FIG. 20D relates to GFP; FIG. 20E relates to a time-line.
As shown in the figure are several scattergrams of the cells that are transfected with GFP gene carrying transposons. Several samples of cells are transfected with DNA comprising a gene for GFP expression (2.5 ug and 5 ug), mcGFP only, and RNA (1 ug and 3 ug).
FIGS. 24A-24B relate to expression of GFP in cells transfected with GFP:SB. […] FIG. 24B relates to the experiment was performed using RNA, however, DNA has a higher efficiency for leading to expression of the protein.

H9 cells [2] = assay: Transposon copy number by qPCR in MTX-selected H9 cells; format: cell-based, human
Experimental: Genomic DNA was extracted with Puregene Kit A according to the manufacturer's instructions (Qiagen), and qPCR was performed using a 7300 Real-Time PCR System (Applied Biosystems) using Universal SYBR Green Supermix (BioRad). Primers for qPCR were designed using Primer3 software: […]
MaxGFP primers are specific for the maxGFP gene in the transposon. Standard curves were generated using genomic DNA of a H9 clone with a single insertion of transposon (“gold standard”) obtained by limiting dilution method. Copy number was calculated using the […] (Schmittgen, T. D. and Livak, K. J. (2008), incorporated in its entirety herein). Characterization of SBTS Integration Distribution.
Plates were incubated for 2-3 weeks, after which clonal populations were moved to larger plates and expanded. GFP expression was confirmed by flow cytometry. Relative RT-qPCR analysis was performed using DNA of 60 individual clones in order to determine transposon copy number.
First, a “gold standard” clone with a single copy of integrated transposon was generated by limiting dilution method. […] A trend of increasing average transposon copy number with increasing selection pressure was observed. […] Statistical difference was assessed by Student's t-test.
Sixty clones were generated by limiting dilution method, GFP expression confirmed by flow cytometry, genomic DNA isolated, and the number of GFP genes per haploid genome analyzed by RT-PCR. Most clones (˜65%) contained multiple copies of GFP.

H9 cells [3] = assay: MTX selection and transgene persistence in H9 cells stably transfected with T3/GFP-T2A-DHFRdm transposon, flow cytometry; format: cell-based, human
Experimental: (§1) H9 cells were cultured in DMEM with 10% FBS. The optimized nucleofection protocol for H9 cells (Lonza) was followed (program X-001, Nucleofector Kit V). Per nucleofection, 1×10^6 cells were used with varying amounts of MC DNA. Cells were grown for a week after nucleofection to achieve stable transfection.
(§2) Live cells were selected based on propidium iodide exclusion by adding propidium iodide in the flow cytometry buffer to 2 μg/ml. Flow cytometry analysis was carried out on a MACSQuant Analyzer (Miltenyi Biotec) and LSRII (BD Biosciences). Collected data was analyzed with FlowJo software. Appropriate negative controls (untransfected H9 cells with and without propidium iodide staining, as well as cells transfected with single genes for GFP, BFP, and mCherry) were used for compensation and gating. A Becton Dickinson FACSAria II was used for cell sorting. Part of flow cytometry work was conducted at the UW Immunology Flow Cytometry Facility.

H9 cells [4] = assay: Multiplexed gene integration of three fluorescent protein transposons with MTX step selection, flow cytometry; format: cell-based, human; conditions: for cells expressing triple transgenes: 200 nM MTX 1 week
Experimental: as §1, §2
H9 cells were nucleofected with three minicircles containing three different reporter genes (maxGFP, mCherry, and BFP) in transposon cassettes and the SB100X transposase minicircle. Stably-transduced cells were then selected for 7 days with 200 nM and cell population assessed by flow cytometry analysis. […] Initial transfection efficiency assessed 24 hours after nucleofection, was 68% (FIG. 6A). The stably transduced population was 37±1.4%, reflecting 54% integration efficiency. Of this population, 19±0.6% expressed two or three different fluorescent proteins. […] Cell viability rebounded to ˜70% during the second round of selection due to further selection for overexpression of the DHFRdm gene.

[5] = 60 clones from population selected with 200 nM MTX

Question: Which results are given for `CN(Cc1cnc2nc(N)nc(N)c2n1)c1ccc(C(=O)N[C@@H](CCC(=O)O)C(=O)O)cc1` [MTX, methotrexate]?
Answer: MTX concentration at which cells express GFP optimally [1]: 50 µM; average number of integration events in clones (H9 cells [2]; [5]): 1.8 and 1.78±0.69; clones containing multiple copies of GFP (H9 cells [2]; [5]): ~65%; average integration events (transposon copy number per human haploid genome) (H9 cells [2]; cell population selected with 200 nM MTX, RT-qPCR): 2.1±0.45; decrease in mean GFP expression by 4 weeks post-MTX withdrawal (H9 cells [3]; 50 nM MTX selection): 28%; decrease in mean GFP expression by 4 weeks post-MTX withdrawal (H9 cells [3]; 100 nM MTX selection): 27%; GFP+ population four weeks post-MTX withdrawal (H9 cells [3]; 200 nM MTX for 2 weeks): 97%; decrease in mean GFP expression by 4 weeks post-MTX withdrawal (H9 cells [3]; 200 nM MTX selection): 21%; GFP+ population four weeks post-MTX withdrawal (H9 cells [3]; all populations (50, 100, 200 nM MTX for 2 weeks)): > 90%; GFP+ cells (H9 cells [3]; by 7 days post-selection, all conditions (50 to 200 nM MTX)): > 94%; cells expressing triple transgenes (H9 cells [4]; then 500 nM MTX additional week): 38.5±1.0%; cells expressing triple transgenes (H9 cells [4]; then 1000 nM MTX additional week): 53.1±0.3%; cell viability (H9 cells [4]; during the second round of selection): ~70%; cells expressing three transgene products (H9 cells [4]; two-step selection, two successive MTX selection rounds): 50%
